Assay results taken from patent US11857535B2, “Methods of treating mutant lymphomas” (Kymera Therapeutics, Inc., priority 2020, dated 2024).
In brackets after ≈: the same amount, converted by molar mass.

Tests used:
OCI-Ly10 = assay: CTG cell viability assay - OCI-Ly10; assay type: cell-based; settings: Homo sapiens, 96 h; OCI-Ly10, 4 days
Description: Compound-mediated viability effect on OCI-Ly10 or SUDHL-2 was quantitatively determined using the CellTiter-Glo® Luminescent Cell Viability Assay kit from Promega (Catalog number G7570) following manufacturer's recommended procedures. Briefly, OCI-Ly10 or SUDHL-2 cells were seeded into 384 well plates (Grenier Bio-One, Catalog number 781080) with a density of 10,000 cells per well. Compounds were then added to the assay plate with final top concentration of 10 μM and 1:3 dilution series with total of 9 doses. The final DMSO concentration was normalized to 0.2%. The assay plates were incubated at 37° C. for 4 days under 5% CO2. Then the assay plate was equilibrated at room temperature for 10 minutes. To determine cell viability, 30 μL CellTiter Glo reagent was added to each well and the assay plate was centrifuged at 1000 rpm for 30 second, incubated at room temperature for 10 min, and analyzed by detecting the luminescence using a multimode plate reader (EnVision 2105, PerkinElmer). The data was then analyzed by software Prism 7.0 from GraphPad and the dose response curves were fit using a three-parameter logistic equation to calculate IC50.

IRAK4 = molecular target: T1, IRAK4 (Homo sapiens, UniProt Q9NWZ3); assay: Deep proteomics / degradation time course in OCI-Ly10 (FIG. 8); assay type: cell-based; settings: OCI-Ly10, between 16-24 h post treatment
T1 construct: endogenous in cells; host or cells: OCI-Ly10
T1 sequence (Q9NWZ3 1-460): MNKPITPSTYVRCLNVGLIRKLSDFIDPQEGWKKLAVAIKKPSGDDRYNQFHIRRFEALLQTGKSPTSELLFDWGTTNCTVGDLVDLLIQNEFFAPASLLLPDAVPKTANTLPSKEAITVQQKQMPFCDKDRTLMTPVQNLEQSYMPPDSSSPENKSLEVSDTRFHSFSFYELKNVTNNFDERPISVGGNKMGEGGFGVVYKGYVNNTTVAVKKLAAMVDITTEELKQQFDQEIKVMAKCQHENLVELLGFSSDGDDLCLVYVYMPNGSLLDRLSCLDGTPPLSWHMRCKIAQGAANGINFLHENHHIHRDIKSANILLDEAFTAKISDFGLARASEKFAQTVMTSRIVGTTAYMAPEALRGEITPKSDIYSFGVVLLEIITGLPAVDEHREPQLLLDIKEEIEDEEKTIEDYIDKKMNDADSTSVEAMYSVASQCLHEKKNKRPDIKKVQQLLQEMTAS
From the text: FIG. 8 depicts deep proteomics scatterplots showing degradation of IRAK4 and IMiD substrates in OCI-Ly10 using Compound A. Type 1 IFN signaling was activated in OCI-Ly10 MYD88^MT DLBCL.

Aiolos = molecular target: T2, Aiolos (Homo sapiens, UniProt Q96SW2+Q9UKT9); assay: Aiolos degradation in OCI-Ly10 xenograft tumors (tumor PD); assay type: in vivo; settings: after 5d dosing
T2 construct: from tissue; host or cells: OCI-Ly10 xenograft tumours grown in mice
T2 sequence (Q9UKT9 whole entry): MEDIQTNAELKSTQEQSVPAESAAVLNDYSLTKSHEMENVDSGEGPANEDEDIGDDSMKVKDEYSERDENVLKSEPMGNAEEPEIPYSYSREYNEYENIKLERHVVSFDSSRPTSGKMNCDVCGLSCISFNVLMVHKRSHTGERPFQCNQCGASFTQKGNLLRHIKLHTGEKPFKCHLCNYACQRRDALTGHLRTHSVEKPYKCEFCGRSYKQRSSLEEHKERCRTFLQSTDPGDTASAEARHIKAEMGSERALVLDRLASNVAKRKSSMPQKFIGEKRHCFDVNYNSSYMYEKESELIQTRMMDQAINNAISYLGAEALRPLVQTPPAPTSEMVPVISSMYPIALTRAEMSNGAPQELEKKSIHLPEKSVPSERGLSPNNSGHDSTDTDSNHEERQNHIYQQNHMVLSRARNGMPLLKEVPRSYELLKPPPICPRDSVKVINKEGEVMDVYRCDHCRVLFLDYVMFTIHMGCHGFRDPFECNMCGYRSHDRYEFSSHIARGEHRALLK
T2 sequence (Q96SW2 whole entry): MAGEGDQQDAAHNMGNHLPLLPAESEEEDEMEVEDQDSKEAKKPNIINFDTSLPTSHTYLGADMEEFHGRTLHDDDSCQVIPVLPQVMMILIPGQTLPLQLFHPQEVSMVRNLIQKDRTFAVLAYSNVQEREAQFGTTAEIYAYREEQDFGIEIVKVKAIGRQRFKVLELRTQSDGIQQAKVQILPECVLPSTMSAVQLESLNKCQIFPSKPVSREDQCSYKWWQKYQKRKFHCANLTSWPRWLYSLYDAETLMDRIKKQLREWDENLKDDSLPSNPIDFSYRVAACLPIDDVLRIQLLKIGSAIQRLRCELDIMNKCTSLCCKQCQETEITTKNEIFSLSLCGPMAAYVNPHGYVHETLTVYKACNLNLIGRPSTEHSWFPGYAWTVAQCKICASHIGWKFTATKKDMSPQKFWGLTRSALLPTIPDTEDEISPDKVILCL
T2 sequence (Q16531 whole entry partner): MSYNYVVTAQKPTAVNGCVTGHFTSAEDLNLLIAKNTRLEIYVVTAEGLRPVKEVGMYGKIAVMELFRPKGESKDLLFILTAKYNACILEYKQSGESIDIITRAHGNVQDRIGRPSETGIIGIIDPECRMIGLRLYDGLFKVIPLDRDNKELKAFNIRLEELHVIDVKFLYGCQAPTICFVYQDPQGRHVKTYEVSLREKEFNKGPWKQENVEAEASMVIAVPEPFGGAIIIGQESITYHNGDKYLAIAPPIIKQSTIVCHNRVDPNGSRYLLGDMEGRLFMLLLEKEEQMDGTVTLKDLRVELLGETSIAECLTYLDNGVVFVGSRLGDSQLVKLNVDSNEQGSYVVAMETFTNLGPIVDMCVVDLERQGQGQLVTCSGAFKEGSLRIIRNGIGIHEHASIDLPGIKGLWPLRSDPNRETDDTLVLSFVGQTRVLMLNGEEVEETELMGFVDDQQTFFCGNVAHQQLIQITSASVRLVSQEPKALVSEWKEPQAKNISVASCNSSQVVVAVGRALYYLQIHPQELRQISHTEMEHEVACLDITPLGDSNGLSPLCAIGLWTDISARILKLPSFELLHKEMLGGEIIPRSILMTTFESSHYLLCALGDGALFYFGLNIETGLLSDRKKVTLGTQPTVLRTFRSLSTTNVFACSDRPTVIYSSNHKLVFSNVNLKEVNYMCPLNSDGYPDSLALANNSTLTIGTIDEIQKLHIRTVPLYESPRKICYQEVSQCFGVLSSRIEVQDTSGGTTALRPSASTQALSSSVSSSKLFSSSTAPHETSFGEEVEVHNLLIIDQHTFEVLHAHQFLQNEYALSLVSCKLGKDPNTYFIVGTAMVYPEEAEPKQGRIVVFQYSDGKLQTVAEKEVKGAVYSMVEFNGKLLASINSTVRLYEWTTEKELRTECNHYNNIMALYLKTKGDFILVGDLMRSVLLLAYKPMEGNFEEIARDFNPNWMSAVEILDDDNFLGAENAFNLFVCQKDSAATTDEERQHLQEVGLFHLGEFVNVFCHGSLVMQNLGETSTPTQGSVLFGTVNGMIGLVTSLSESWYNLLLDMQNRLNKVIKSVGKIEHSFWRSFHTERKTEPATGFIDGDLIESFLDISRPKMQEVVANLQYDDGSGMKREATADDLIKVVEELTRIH
Description: Target exposure for efficacy in OCI-Ly10 is steady state C24h of 10-80 nM based on either a 3 mpk or 10 mpk dose. Rapid regressions are associated with strong degradation of both IRAK4 and IMiD substrates.

[1] = Solubility in oral dosing vehicle; assay type: physicochemical; settings: 10% HP-β-CD vehicle (oral dosing vehicle), aqueous with cosolvent or surfactant or cyclodextrin; 10% HP-β-CD in water at pH 3.5 (w/v), 25 C; read-out: measured solubility
Description: Formulation: 10% HP-β-CD in water at pH 3.5 (w/v) in water at pH 3.5 (w/v) • Prepare the 10% HP-β-CD vehicle on a (w/v) basis • Add compound with stirring. • Heat to ˜50 C for 10 minutes. Can also sonicate. • Adjust pH to 3.5. • Heat for another 10-20 minutes at ˜50 C. • Check and adjust the pH as needed. • Expect solution as the measured solubility was 10 mg/mL at 25 C.

[2] = NHP clinical observations and body weight (tolerability); assay type: in vivo, Cynomolgus monkeys
Description: Body weight measurement at pre-dose on Day 1, Day 4, Day 7, Day 14. Monitor clinical observation of the animal for 14 days post dose.
Twice daily (approximately 9:30 a.m. and 4:00 p.m.), Cage-side observations for general health and appearance will be done. Animals will be given physical examination prior to study initial to confirm animals' health. Day of dosing: before and after dosing, and before and after each PK sample time point through 24 hour PK sample. Twice daily thereafter. General condition, behavior, activity, excretion, respiration or other unusual observations noted throughout the study will be recorded in the raw data. When necessary, additional clinical observations will be performed and recorded.
All animals will be weighed on the dosing day prior to dosing to determine the dose volume to be administered, and again weekly thereafter.
All animals will be weighed on the dosing day prior to dosing to determine the dose volume to be administered, and again weekly after.

CC(C)(O)c1cc2nc([C@H]3CC[C@H](CN4CC5(CC(CCNc6cccc7c6C(=O)N(C6CCC(=O)NC6=O)C7=O)C5)C4)CC3)sc2cc1NC(=O)c1cccc(C(F)(F)F)n1 (stereo partly shown) [Compound A, N-(2-((1r,4r)-4-((6-(2-((2-(2,6-dioxopiperidin-3-yl)-1,3-dioxoisoindolin-4-yl)amino)ethyl)-2-azaspiro[3.3]heptan-2-yl)methyl)cyclohexyl)-5-(2-hydroxypropan-2-yl)benzo[d]thiazol-6-yl)-6-(trifluoromethyl)picolinamide]
IC50 (OCI-Ly10): < 0.05 µM | degradation of IRAK4 (time course) (IRAK4): > 80% | Aiolos (% Deg) (Aiolos; 3 mpk): 49% | Aiolos (% Deg) (Aiolos; 10 mpk): 91% | Aiolos (% Deg) (Aiolos; 30 mpk): 97% | solubility [1]: 10 mg/mL (≈ 11.5 mM) | GI events ([2]; IV, exposures up to 4.4X MED): No observed GI events | Hematuria ([2]; NHP, IV): Not observed in NHP: slower | Clinical Observations ([2]; NHP, IV 5 mg/kg, D1, 2): None | Clinical Observations ([2]; NHP, IV 10 mg/kg, D1): None | Clinical Observations ([2]; NHP, IV 10 mg/kg, D1, 2): None | Clinical Observations ([2]; NHP, IV 20 mg/kg, D1): None | Clinical Observations ([2]; NHP, PO 10 mg/kg, D1, D4): Diarrhea | Clinical Observations ([2]; NHP, PO 25 mg/kg, D1, D2): Diarrhea, Emesis | Clinical Observations ([2]; NHP, PO 25 mg/kg, D1, D4): Diarrhea, Emesis | Clinical Observations ([2]; NHP, PO 50 mg/kg, D1): Diarrhea | Clinical Observations ([2]; NHP, PO 50 mg/kg, D1, D4): Diarrhea, Emesis | Clinical Observations ([2]; NHP, PO 100 mg/kg, D1): Diarrhea, Emesis | GI events ([2]; PO, observed in all TA PO dose groups, likely tolerable): GI events (e.g., diarrhea and emesis)
